Results as given in patent publication US5500344A, “Serine protease and uses thereof” (The United States of America as represented by the …, priority 1992, dated 1996).
Blank lines part the entries; values can stand above or below the molecule they belong to. Starred links: 1 amine or outer side, 2 acyl side, 3 side chain; linkers in the order of their positions; H or OH if unused. Non-standard residues stand in square brackets, D forms with d. Residues, ends and D or L forms follow the SMILES beside them. *: point of attachment. Suc = O=C(CCC(=O)[*:2])[*:1]; Nle = CCCC[C@H](N)C(=O)O; Boc = CC(C)(C)OC(=O)*; SBn = c1ccc(CS*)cc1

What was measured:
Met-ase = target: T1, Met-ase (Rattus norvegicus, UniProt Q03238); test: Initial rates of peptide thiobenzyl ester substrate hydrolysis by HPLC-purified Met-ase (HPLC fraction 104); type: biochemical; conditions: [S] 100-133 μM, pH 7.5, 25° C.
T1 construct: endogenous in cells; host or cells: rat RNK-16 LGL leukemia cells, cytolytic granules, HPLC fraction 104
T1 sequence (Q03238 21-258 limits assumed): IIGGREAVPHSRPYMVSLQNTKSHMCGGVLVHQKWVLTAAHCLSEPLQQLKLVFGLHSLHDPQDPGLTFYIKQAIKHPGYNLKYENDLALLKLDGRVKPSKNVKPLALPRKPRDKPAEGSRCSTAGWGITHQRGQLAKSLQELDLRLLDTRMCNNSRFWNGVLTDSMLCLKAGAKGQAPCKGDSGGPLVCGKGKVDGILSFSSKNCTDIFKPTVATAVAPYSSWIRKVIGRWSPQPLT
Experimental: (§1) Briefly, 50 μl of sample was added to 100 μl of 1 mM DTNB, made up in 10 mM Hepes, 1 mM CaCl2, 1 mM MgCl2, pH7.2. The reaction was initiated by the addition of 50 μl of BLT (Sigma) to give a final concentration of 500 μM. For Metase determinations, 50 μl of dilutions of the sample in 0.1M Hepes, 0.05M CaCl2, pH7.5 were added to 100 μl of 1 mM DTNB and the reaction was initiated by the addition of 50 μl of Boc-Ala-Ala-Met-S Benzyl (Bzl) to give a final concentration of 150 μM. The duration of the assay depended on color development, the rate of which was measured (0.D410) on a Dynatech MR 5000 microplate reader. Controls of sample and DTNB alone or DTNB and substrate alone were run. For more sensitive comparisons of enzymatic activities, peptide thiobenzyl ester substrates were used to measure protease activities. The chymase substrate Suc-Phe-Leu-Phe-SBzl was purchased from BACHEM Bioscience Inc., Philadelphia, Pa. […] Boc-Ala-Ala-Asp-SBzl is the substrate for Asp-ase and peptide thiobenzyl esters containing Met, Leu or Nle are substrates for Met-ase SP. […] The initial rates were measured at 324 nm using a Beckman 35 spectrophotometer when 10-25 μl of an enzyme stock solution was added to a cuvette containing 2.0 ml of buffer, 150 μl of 4,4'-dithiodipyridine and 25 μl of substrate. The same volume of substrate and 4,4'-dithiodipyridine were added to the reference cell in order to compensate for the background hydrolysis rate of the substrates. Initial rates were measured in duplicate for each substrate concentration and were averaged in each case.
(§2) 10 μl of enzyme solution was added to […]

Boc-Ala-Ala-Asp-SBzl = target: T2, Boc-Ala-Ala-Asp-SBzl
T2 sequence (peptide, N-terminal Boc; C-terminal thiobenzyl ester (SBzl)): AAD

Boc-Ala-Ala-Met-SBzl = target: T3, Boc-Ala-Ala-Met-SBzl
T3 sequence (peptide, N-terminal Boc; C-terminal thiobenzyl ester (SBzl)): AAM

Boc-Ala-Ala-Ser-SBzl = target: T4, Boc-Ala-Ala-Ser-SBzl
T4 sequence (peptide, N-terminal Boc; C-terminal thiobenzyl ester (SBzl)): AAS

Suc-Phe-Leu-Phe-SBzl = target: T5, Suc-Phe-Leu-Phe-SBzl
T5 sequence (peptide, N-terminal Suc; C-terminal thiobenzyl ester (SBzl)): FLF

Asp-ase = target: T6, Asp-ase (Rattus norvegicus, UniProt P18291); test: Initial rates of peptide thiobenzyl ester substrate hydrolysis by HPLC-purified Asp-ase; type: biochemical; conditions: [S] 100-133 μM, 0.1 M Hepes, 0.01 M CaCl2, pH 7.5, 8% Me2SO, 25° C.
T6 construct: Asp-ase purified by HPLC as previously described; endogenous in cells; host or cells: rat RNK LGL leukemia cells, cytolytic granules, HPLC-purified (Sayers et al. 1992)
T6 sequence (P18291 21-248): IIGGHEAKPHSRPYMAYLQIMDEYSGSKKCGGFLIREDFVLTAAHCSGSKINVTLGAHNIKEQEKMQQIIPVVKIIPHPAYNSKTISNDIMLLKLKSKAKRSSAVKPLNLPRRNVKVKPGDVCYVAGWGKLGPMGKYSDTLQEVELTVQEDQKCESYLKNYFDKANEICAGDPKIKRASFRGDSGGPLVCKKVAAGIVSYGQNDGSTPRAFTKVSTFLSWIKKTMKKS
Experimental: as §1, §2

Tryptase = target: T7, Tryptase (Rattus norvegicus, UniProt P49864); test: Initial rates of peptide thiobenzyl ester substrate hydrolysis by HPLC-purified Tryptase (HPLC fraction 56); type: biochemical; conditions: 10 μl enzyme solution (HPLC fraction 56); [S] 100-133 μM; pH 7.5, 25° C.
T7 construct: The BLT-esteraseactivity was found in fractions 49 and 56; endogenous in cells; host or cells: rat RNK-16 NK/LGL leukemia cells, cytolytic granules, HPLC fraction 56
T7 sequence (P49864 26-258): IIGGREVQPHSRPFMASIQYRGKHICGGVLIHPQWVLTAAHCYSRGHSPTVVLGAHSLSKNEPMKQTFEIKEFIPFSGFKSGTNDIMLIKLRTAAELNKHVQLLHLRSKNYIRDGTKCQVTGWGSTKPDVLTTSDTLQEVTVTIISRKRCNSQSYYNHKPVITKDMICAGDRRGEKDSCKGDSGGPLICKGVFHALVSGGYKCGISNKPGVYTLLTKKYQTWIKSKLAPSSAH
Experimental: as §1, §2

[1] = 10 μl enzyme solution (HPLC fraction 104)
[2] = 25 μl enzyme solution (HPLC fraction 104)

Molecule: CC(C)C[C@H](NC(=O)[C@H](C)NC(=O)[C@H](C)NC(=O)OC(C)(C)C)C(=O)SCc1ccccc1 [Boc--Ala--Ala--Leu--SBz1] (Boc-Ala-Ala-Leu-SBn)
Initial Rates, Met-ase (Met-ase; [1]): 2.9 nM/s

Molecule: CCCC[C@H](NC(=O)[C@H](C)NC(=O)[C@H](C)NC(=O)OC(C)(C)C)C(=O)SCc1ccccc1 [Boc--Ala--Ala--Nle--SBz1] (Boc-Ala-Ala-[Nle]-SBn)
Initial Rates, Met-ase (Met-ase; [1]): 3.9 nM/s
Initial Rates, Met-ase (Met-ase; [2]): 15.2 nM/s

Initial Rates (Boc-Ala-Ala-Asp-SBzl): 12.6 nM/s
Initial Rates (Boc-Ala-Ala-Met-SBzl): 0 nM/s
Initial Rates (Boc-Ala-Ala-Ser-SBzl): 1.3 nM/s
Initial Rates (Suc-Phe-Leu-Phe-SBzl): 0 nM/s
Molecule: Asp-ase (RNKP-1) (from UniProt P18291) (enzyme)

Molecule: C[C@H](NC(=O)OC(C)(C)C)C(=O)N[C@@H](C)C(=O)N[C@@H](CO)C(=O)SCc1ccccc1 [Boc--Ala--Ala--Ser--SBz1] (Boc-Ala-Ala-Ser-SBn)
Initial Rates, Asp-ase (Asp-ase; 10 μl enzyme solution): 1.3 nM/s
Initial Rates, Asp-ase (Asp-ase; 25 μl enzyme solution): 6.7 nM/s
Initial Rates, Tryptase (Tryptase): 0.4 nM/s
Initial Rates, Met-ase (Met-ase; [1]): 0 nM/s

Molecule: CSCC[C@H](NC(=O)[C@H](C)NC(=O)[C@H](C)NC(=O)CCC(=O)O)C(=O)SCc1ccccc1 [Suc--Ala--Ala--Met--SBz1, Suc-Ala-Ala-Met-SBzl] (Suc-Ala-Ala-Met-SBn)
Initial Rates, Met-ase (Met-ase; [2]): 10.1 nM/s
